Test system: washed mouse platelets
Test: Clot contraction assay, time-lapse imaging of washed mouse platelets with thrombin, fibrinogen and CaCl2
Type: cell-based
[1] = fibrinogen 62 μg/mL, CaCl2 0.5 mM, thrombin 20 mU/mL
[2] = fibrinogen 125 μg/mL, CaCl2 0.5 mM, thrombin 20 mU/mL
[3] = fibrinogen 250 μg/mL, CaCl2 0.5 mM, thrombin 20 mU/mL
[4] = fibrinogen 500 μg/mL, CaCl2 0.5 mM, thrombin 20 mU/mL
[5] = fibrinogen 1000 μg/mL, CaCl2 0.5 mM, thrombin 20 mU/mL
[6] = increased thrombin concentration, 10-200 mU/mL
[7] = thrombin 10 mU/mL, CaCl2 0.5 mM, fibrinogen 250 μg/mL
[8] = thrombin 20 mU/mL, CaCl2 0.5 mM, fibrinogen 250 μg/mL
[9] = thrombin 30 mU/mL, CaCl2 0.5 mM, fibrinogen 250 μg/mL
[10] = thrombin 50 mU/mL, CaCl2 0.5 mM, fibrinogen 250 μg/mL
[11] = thrombin 100 mU/mL, CaCl2 0.5 mM, fibrinogen 250 μg/mL
[12] = 1 mM EGTA, thrombin 20 mU/mL, fibrinogen 250 μg/mL

## Fibrinogen
[1]
  AUC: 6.66 AU
  Average Velocity: 0.53 %/min
  Clot Contraction Extent: 53.50%
  Lag time: 46.67 min
  PHASE 1 % Contraction: 2.11%
  PHASE 1 Rate 1: 1.50 ×10^−3 %/min
  PHASE 1 t1: 13.00 min
  PHASE 2 % Contraction: 24.32%
  PHASE 2 Rate 2: 1.19 %/min
  PHASE 2 t2: 28.00 min
  PHASE 3 % Contraction: 43.44%
  PHASE 3 Rate 3: 2.90 ×10^−2 %/min
[2]
  AUC: 4.13 AU
  Average Velocity: 1.00 %/min
  Clot Contraction Extent: 98.07%
  Lag time: 26.40 min
  PHASE 1 % Contraction: 2.72%
  PHASE 1 Rate 1: 2.25 ×10^−3 %/min
  PHASE 1 t1: 10.75 min
  PHASE 2 % Contraction: 37.99%
  PHASE 2 Rate 2: 1.66 %/min
  PHASE 2 t2: 30.75 min
  PHASE 3 % Contraction: 57.36%
  PHASE 3 Rate 3: 5.90 ×10^−2 %/min
[3]
  AUC: 4.23 AU
  Average Velocity: 0.98 %/min
  Clot Contraction Extent: 96.87%
  Lag time: 21.67 min
  PHASE 1 % Contraction: 3.26%
  PHASE 1 Rate 1: 2.18 ×10^−3 %/min
  PHASE 1 t1: 10.40 min
  PHASE 2 % Contraction: 26.29%
  PHASE 2 Rate 2: 1.50 %/min
  PHASE 2 t2: 29.40 min
  PHASE 3 % Contraction: 67.28%
  PHASE 3 Rate 3: 4.96 ×10^−2 %/min
[4]
  AUC: 4.89 AU
  Average Velocity: 0.89 %/min
  Clot Contraction Extent: 88.42%
  Lag time: 17.80 min
  PHASE 1 % Contraction: 3.48%
  PHASE 1 Rate 1: 2.78 ×10^−3 %/min
  PHASE 1 t1: 9.40 min
  PHASE 2 % Contraction: 19.02%
  PHASE 2 Rate 2: 1.10 %/min
  PHASE 2 t2: 26.00 min
  PHASE 3 % Contraction: 65.92%
  PHASE 3 Rate 3: 3.32 ×10^−2 %/min
Fibrinogen 1,000 μg/mL
  Efficiency of contraction: too high for efficient contraction
[5]
  AUC: 6.18 AU
  Average Velocity: 0.69 %/min
  Clot Contraction Extent: 68.91%
  Lag time: 39.80 min
  PHASE 1 % Contraction: 4.20%
  PHASE 1 Rate 1: 3.03 ×10^−3 %/min
  PHASE 1 t1: 11.80 min
  PHASE 2 % Contraction: 10.11%
  PHASE 2 Rate 2: 0.70 %/min
  PHASE 2 t2: 25.40 min
  PHASE 3 % Contraction: 54.53%
  PHASE 3 Rate 3: 1.92 ×10^−2 %/min
Fibrinogen 62.5 to 1,000 μg/mL
  Fibrinogen concentrations with highest extent and average velocity of contraction: highest at 125 and 250

## Thrombin
[6]
  Effect on extent of clot contraction: remained unchanged
  Effect on lag time: decreased
Over the thrombin concentration range tested
  Increase of Phase 1 (initiation) rate: ~5 fold
[7]
  AUC: 5.62 AU
  Average Velocity: 0.82 %/min
  Clot Contraction Extent: 80.19%
  Lag time: 28.33 min
  PHASE 1 % Contraction: 4.93%
  PHASE 1 Rate 1: 4.27 ×10^−3 %/min
  PHASE 1 t1: 13.33 min
  PHASE 2 % Contraction: 23.95%
  PHASE 2 Rate 2: 1.02 %/min
  PHASE 2 t2: 36.00 min
  PHASE 3 % Contraction: 51.32%
  PHASE 3 Rate 3: 3.93 ×10^−2 %/min
[8]
  AUC: 4.90 AU
  Average Velocity: 0.90 %/min
  Clot Contraction Extent: 88.45%
  Lag time: 19.33 min
  PHASE 1 % Contraction: 4.66%
  PHASE 1 Rate 1: 4.67 ×10^−3 %/min
  PHASE 1 t1: 11.33 min
  PHASE 2 % Contraction: 31.74%
  PHASE 2 Rate 2: 1.33 %/min
  PHASE 2 t2: 36.33 min
  PHASE 3 % Contraction: 52.05%
  PHASE 3 Rate 3: 3.63 ×10^−2 %/min
[9]
  AUC: 4.10 AU
  Average Velocity: 0.94 %/min
  Clot Contraction Extent: 92.41%
  Lag time: 15.33 min
  PHASE 1 % Contraction: 6.03%
  PHASE 1 Rate 1: 6.67 ×10^−3 %/min
  PHASE 1 t1: 8.67 min
  PHASE 2 % Contraction: 20.91%
  PHASE 2 Rate 2: 1.67 %/min
  PHASE 2 t2: 22.00 min
  PHASE 3 % Contraction: 65.45%
  PHASE 3 Rate 3: 2.70 ×10^−2 %/min
[10]
  AUC: 3.69 AU
  Average Velocity: 0.94 %/min
  Clot Contraction Extent: 92.51%
  Lag time: 10.67 min
  PHASE 1 % Contraction: 6.96%
  PHASE 1 Rate 1: 27.33 ×10^−3 %/min
  PHASE 1 t1: 6.67 min
  PHASE 2 % Contraction: 16.04%
  PHASE 2 Rate 2: 1.97 %/min
  PHASE 2 t2: 18.00 min
  PHASE 3 % Contraction: 69.51%
  PHASE 3 Rate 3: 3.10 ×10^−2 %/min
[11]
  AUC: 3.32 AU
  Average Velocity: 0.97 %/min
  Clot Contraction Extent: 94.93%
  Lag time: 9.00 min
  PHASE 1 % Contraction: 6.55%
  PHASE 1 Rate 1: 21.33 ×10^−3 %/min
  PHASE 1 t1: 5.00 min
  PHASE 2 % Contraction: 19.72%
  PHASE 2 Rate 2: 2.02 %/min
  PHASE 2 t2: 18.67 min
  PHASE 3 % Contraction: 68.67%
  PHASE 3 Rate 3: 3.43 ×10^−2 %/min

## O=C(O)CN(CCOCCOCCN(CC(=O)O)CC(=O)O)CC(=O)O [EGTA, reference compound]
[12]
  AUC: 7.83 AU
  Average Velocity: 0.51 %/min
  Clot Contraction Extent: 50.72%
  Lag time: 71.67 min
EGTA included
  Effect on average contraction velocity: significantly reduced
In the presence of EGTA
  Detection of the three phases of contraction: none of the three phases was detectible
